Data: patent US6362369B1, “Phthalic acid diamide derivatives fluorine-containing aniline compounds as starting material, agricultural and horticultural insecticides, and a method for application of the insecticides” (Nihon Nohyaku Co., Ltd., priority 1997, dated 2002)

What was measured:
Type in all cases: in vivo
[1] = test system: diamondback moth (Plutella xylostella); assay: Insecticidal effect on diamondback moth (Test Example 1); conditions: diamondback moth; judged by the mortality criterion of Test Example 1
In short: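 Triplicate groups of 10 insects were scored: six days after immersion of oviposited Chinese cabbage seedlings and holding at 25 °C post air-drying, hatched larvae were counted. Mortality derived from these counts and insecticidal effect judged by a set criterion.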

[2] = test system: common cutworm (Spodoptera Litura); assay: Insecticidal effect on common cutworm (Test Example 2); conditions: 500 ppm; cabbage leaf immersed; second-instar larvae of common cutworm; eight days after inoculation; 25° C.
In short: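 After the treated material air-dries, it goes into a dish, second-instar larvae are added, and the dish is closed. Incubation runs at 25° C. On day eight, dead and living larvae are scored, and the calculated mortality is rated on an effect scale.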

[3] = test system: rice leafroller (Cnaphalocrocis medinalis); assay: Insecticidal effect on rice leafroller (Test Example 3); conditions: 500 ppm; rice lamina immersed; third-instar larvae of rice leafroller; four days after inoculation; 25° C., humidity 70%
In short: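 Insecticidal effect is judged by a predefined criterion from dead/alive counts four days after infesting air-dried lamina with third-instar larvae, kept on moistened filter paper at 25° C, 70% humidity.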

Cc1cc(Oc2ncc(C(F)(F)F)cc2Cl)ccc1NC(=O)c1cccc(Br)c1C(=O)NC(C)C [compound 298]
Insecticidal effect, Test Example 1 [1]: A (100)
Insecticidal effect, Test Example 2 [2]: A (100)
Insecticidal effect, Test Example 3 [3]: A (100)

Cc1cc(Oc2ccc(C(F)(F)F)cn2)ccc1NC(=O)c1cccc(Br)c1C(=O)NC(C)C [compound 299]
Insecticidal effect, Test Example 1 [1]: A (100)
Insecticidal effect, Test Example 2 [2]: A (100)
Insecticidal effect, Test Example 3 [3]: A (100)

CC(C)NC(=O)c1cccc(Br)c1C(=O)Nc1ccc(C(F)(F)F)cc1 [compound 301]
Insecticidal effect, Test Example 1 [1]: A (100)
Insecticidal effect, Test Example 2 [2]: A (100)
Insecticidal effect, Test Example 3 [3]: D (79-50)

Cc1c(Cl)cccc1NC(=O)c1c(Br)cccc1C(=O)NC(C)C [compound 305]
Insecticidal effect, Test Example 1 [1]: A (100)
Insecticidal effect, Test Example 2 [2]: A (100)
Insecticidal effect, Test Example 3 [3]: A (100)

Cc1cc(Cl)ccc1NC(=O)c1c(Br)cccc1C(=O)NC(C)C [compound 306]
Insecticidal effect, Test Example 1 [1]: A (100)
Insecticidal effect, Test Example 2 [2]: A (100)
Insecticidal effect, Test Example 3 [3]: A (100)

Cc1c(Br)ccc(NC(=O)c2c(Br)cccc2C(=O)NC(C)C)c1C [compound 312]
Insecticidal effect, Test Example 1 [1]: A (100)
Insecticidal effect, Test Example 2 [2]: A (100)
Insecticidal effect, Test Example 3 [3]: A (100)

Cc1cc(I)ccc1NC(=O)c1c(Br)cccc1C(=O)NC(C)C [compound 313]
Insecticidal effect, Test Example 1 [1]: A (100)
Insecticidal effect, Test Example 2 [2]: A (100)
Insecticidal effect, Test Example 3 [3]: A (100)

Cc1cc(C(F)(F)F)ccc1NC(=O)c1c(Br)cccc1C(=O)NC(C)C [compound 316]
Insecticidal effect, Test Example 1 [1]: A (100)
Insecticidal effect, Test Example 2 [2]: A (100)
Insecticidal effect, Test Example 3 [3]: A (100)

Cc1cc(C(F)(F)C(F)(F)C(F)(F)C(F)(F)F)ccc1NC(=O)c1c(Br)cccc1C(=O)NC(C)C [compound 318]
Insecticidal effect, Test Example 1 [1]: A (100)
Insecticidal effect, Test Example 2 [2]: B (99-90)
Insecticidal effect, Test Example 3 [3]: A (100)

Cc1cc(OCC(F)(F)C(F)F)ccc1NC(=O)c1c(Br)cccc1C(=O)NC(C)C [compound 319]
Insecticidal effect, Test Example 1 [1]: A (100)
Insecticidal effect, Test Example 2 [2]: B (99-90)
Insecticidal effect, Test Example 3 [3]: B (99-90)

CC(C)NC(=O)c1cccc(Br)c1C(=O)Nc1ccc(OC(F)(F)F)cc1Cl [compound 323]
Insecticidal effect, Test Example 1 [1]: A (100)
Insecticidal effect, Test Example 2 [2]: C (89-80)
Insecticidal effect, Test Example 3 [3]: A (100)

Cc1cc(OC(F)F)ccc1NC(=O)c1c(Br)cccc1C(=O)NC(C)C [compound 325]
Insecticidal effect, Test Example 1 [1]: A (100)
Insecticidal effect, Test Example 2 [2]: A (100)
Insecticidal effect, Test Example 3 [3]: A (100)

Cc1cc(OC(F)(F)C(F)C(F)(F)F)ccc1NC(=O)c1c(Br)cccc1C(=O)NC(C)C (stereo not drawn) [compound 328]
Insecticidal effect, Test Example 1 [1]: A (100)
Insecticidal effect, Test Example 2 [2]: A (100)
Insecticidal effect, Test Example 3 [3]: A (100)

Cc1cc(OC(F)(F)C(F)Cl)ccc1NC(=O)c1c(Br)cccc1C(=O)NC(C)C (stereo not drawn) [compound 329]
Insecticidal effect, Test Example 1 [1]: A (100)
Insecticidal effect, Test Example 2 [2]: A (100)
Insecticidal effect, Test Example 3 [3]: A (100)

Cc1cc(Oc2cccc(C(F)(F)F)c2)ccc1NC(=O)c1c(Br)cccc1C(=O)NC(C)C [compound 334]
Insecticidal effect, Test Example 1 [1]: A (100)
Insecticidal effect, Test Example 2 [2]: C (89-80)
Insecticidal effect, Test Example 3 [3]: C (89-80)

Cc1cc(OC(F)F)ccc1NC(=O)c1ccc(Br)c(Br)c1C(=O)NC(C)C [compound 338]
Insecticidal effect, Test Example 1 [1]: A (100)
Insecticidal effect, Test Example 2 [2]: B (99-90)
Insecticidal effect, Test Example 3 [3]: A (100)

Cc1cc(Cl)ccc1NC(=O)c1ccc(Br)c(Br)c1C(=O)NC(C)C [compound 339]
Insecticidal effect, Test Example 1 [1]: A (100)
Insecticidal effect, Test Example 2 [2]: B (99-90)
Insecticidal effect, Test Example 3 [3]: A (100)

CC(C)NC(=O)c1c(I)cccc1C(=O)Nc1ccc(Cl)cc1 [compound 345]
Insecticidal effect, Test Example 1 [1]: A (100)
Insecticidal effect, Test Example 2 [2]: B (99-90)
Insecticidal effect, Test Example 3 [3]: A (100)

CC(C)NC(=O)c1c(I)cccc1C(=O)Nc1ccc(Br)cc1 [compound 346]
Insecticidal effect, Test Example 1 [1]: A (100)
Insecticidal effect, Test Example 2 [2]: C (89-80)
Insecticidal effect, Test Example 3 [3]: A (100)

CC(C)NC(=O)c1c(I)cccc1C(=O)Nc1ccc(I)cc1 [compound 347]
Insecticidal effect, Test Example 1 [1]: A (100)
Insecticidal effect, Test Example 2 [2]: B (99-90)
Insecticidal effect, Test Example 3 [3]: C (89-80)

CC(C)NC(=O)c1c(I)cccc1C(=O)Nc1ccc(C(F)(F)C(F)(F)C(F)(F)F)cc1 [compound 350]
Insecticidal effect, Test Example 1 [1]: A (100)
Insecticidal effect, Test Example 2 [2]: A (100)
Insecticidal effect, Test Example 3 [3]: A (100)

CC(C)NC(=O)c1c(I)cccc1C(=O)Nc1ccc(C(F)(C(F)(F)F)C(F)(F)F)cc1 [compound 351]
Insecticidal effect, Test Example 1 [1]: A (100)
Insecticidal effect, Test Example 2 [2]: A (100)
Insecticidal effect, Test Example 3 [3]: A (100)

CC(C)NC(=O)c1c(I)cccc1C(=O)Nc1ccc(OC(F)(F)C(F)OC(F)(F)F)cc1 (stereo not drawn) [compound 353]
Insecticidal effect, Test Example 1 [1]: A (100)
Insecticidal effect, Test Example 2 [2]: A (100)
Insecticidal effect, Test Example 3 [3]: A (100)

CC(C)NC(=O)c1c(I)cccc1C(=O)Nc1ccc(SC(F)F)cc1 [compound 354]
Insecticidal effect, Test Example 1 [1]: A (100)
Insecticidal effect, Test Example 2 [2]: A (100)
Insecticidal effect, Test Example 3 [3]: A (100)

CC(C)NC(=O)c1c(I)cccc1C(=O)Nc1ccc(SCC(F)(F)F)cc1 [compound 355]
Insecticidal effect, Test Example 1 [1]: A (100)
Insecticidal effect, Test Example 2 [2]: C (89-80)
Insecticidal effect, Test Example 3 [3]: A (100)

CC(C)NC(=O)c1c(I)cccc1C(=O)Nc1ccc(SC(F)(F)C(F)F)cc1 [compound 356]
Insecticidal effect, Test Example 1 [1]: A (100)
Insecticidal effect, Test Example 2 [2]: A (100)
Insecticidal effect, Test Example 3 [3]: A (100)

CC(C)NC(=O)c1c(I)cccc1C(=O)Nc1ccc(F)c(F)c1 [compound 360]
Insecticidal effect, Test Example 1 [1]: A (100)
Insecticidal effect, Test Example 2 [2]: D (79-50)
Insecticidal effect, Test Example 3 [3]: A (100)

Cc1c(Cl)cccc1NC(=O)c1cccc(I)c1C(=O)NC(C)C [compound 361]
Insecticidal effect, Test Example 1 [1]: A (100)
Insecticidal effect, Test Example 2 [2]: A (100)
Insecticidal effect, Test Example 3 [3]: A (100)

Cc1cc(Cl)ccc1NC(=O)c1cccc(I)c1C(=O)NC(C)C [compound 362]
Insecticidal effect, Test Example 1 [1]: A (100)
Insecticidal effect, Test Example 2 [2]: A (100)
Insecticidal effect, Test Example 3 [3]: A (100)

Cc1ccc(Cl)cc1NC(=O)c1cccc(I)c1C(=O)NC(C)C [compound 363]
Insecticidal effect, Test Example 1 [1]: A (100)
Insecticidal effect, Test Example 2 [2]: A (100)
Insecticidal effect, Test Example 3 [3]: A (100)

Cc1ccc(NC(=O)c2cccc(I)c2C(=O)NC(C)C)c(C)c1Cl [compound 364]
Insecticidal effect, Test Example 1 [1]: A (100)
Insecticidal effect, Test Example 2 [2]: A (100)
Insecticidal effect, Test Example 3 [3]: D (79-50)

Cc1c(Cl)ccc(NC(=O)c2cccc(I)c2C(=O)NC(C)C)c1C [compound 365]
Insecticidal effect, Test Example 1 [1]: A (100)
Insecticidal effect, Test Example 2 [2]: A (100)
Insecticidal effect, Test Example 3 [3]: A (100)

Cc1cc(Br)ccc1NC(=O)c1cccc(I)c1C(=O)NC(C)C [compound 366]
Insecticidal effect, Test Example 1 [1]: A (100)
Insecticidal effect, Test Example 2 [2]: A (100)
Insecticidal effect, Test Example 3 [3]: A (100)

Cc1cc(I)ccc1NC(=O)c1cccc(I)c1C(=O)NC(C)C [compound 367]
Insecticidal effect, Test Example 1 [1]: A (100)
Insecticidal effect, Test Example 2 [2]: A (100)
Insecticidal effect, Test Example 3 [3]: A (100)

Cc1cc(F)ccc1NC(=O)c1cccc(I)c1C(=O)NC(C)C [compound 368]
Insecticidal effect, Test Example 1 [1]: A (100)
Insecticidal effect, Test Example 2 [2]: A (100)
Insecticidal effect, Test Example 3 [3]: A (100)

CC(C)NC(=O)c1c(I)cccc1C(=O)Nc1ccc(C(F)(F)F)cc1Cl [compound 369]
Insecticidal effect, Test Example 1 [1]: A (100)
Insecticidal effect, Test Example 2 [2]: A (100)
Insecticidal effect, Test Example 3 [3]: A (100)
